# Tests used:
# [1] = Ionizable cationic lipid in plasma, liver and spleen of NHP 24 hours after tLNP, LC/MS/MS; assay type: in vivo, cynomolgus macaques
# Experimental: Samples were taken from cynomolgus macaques that had been intravenously administered either BF1 or F5 tLNPs (two each) at a dosage of 3 mg mRNA/kg in the preceding example. The tLNPs were conjugated to anti-C05 mentioned in Example 2 as the targeting moiety. 24 hours after administration the animals were sacrificed and plasma, liver, and spleen tissue collected from two animals in each group and assessed by mass spectrometry for presence of these ionizable cationic lipids in order to assess biodegradability and biodistribution of these ionizable cationic lipids.
# Briefly, plasma was stabilized for mass spectrometry by addition of 10 μL of formic acid per mL of K2EDTA plasma. Spleen and liver tissue were homogenized in 19 parts of homogenization buffer (50:40:10 0.1% formic acid in 1:1 methanol:acetone/10 mM ammonium formate with 0.2% formic acid/dimethylformamide (DMF)) to 1 part tissue (v/w) using a Geno/Grinder® (SPEX® SamplePrep) set to two minutes at 1500 rpms.
# Calibration curves and quality control samples were prepared by spiking control matrix (plasma or homogenate) with CICL1 or ALC-0315 in DMF. The extraction was performed on wet ice by adding 300 μL of crashing solvent (0.1% formic acid in 1:1 methanol:acetonitrile) to 25 μL of sample to which 50 μL of internal standard was added (1:1 isopropyl alcohol:water). The extracts were mixed for four minutes at 1500 rpms and then centrifuged at 3000×g for ten minutes. 200 μL of supernatant was transferred to a clean 96 well plate for LC/MS/MS analysis.
# Chromatography was performed on a Waters XBridge BEH C8 column (130 Å, 2.5 μm, 2.1×30 mm) using the following gradient. Mobile phase A (10 mM ammonium format in water with 0.2% formic acid) was held at 20% for 0.3 minutes before being reduced to 5% over […]. This condition was held for one minute before being returned to 80% B (0.1% formic acid in 1:1 methanol:acetonitrile) in 0.1 minutes. The column was then held at 80% B for 1.4 minutes. LC flow rate was held at 0.5 mL/min and the autosampler held at 2-8° C. The mass spectrum was obtained with a triple quadrupole apparatus using atmospheric pressure ionization (Sciex).
# Quantitation was performed using a 1/X2 quadratic regression using the peak area for transition 1013.6→968A (CICL1) or 766.6-748.4 (ALC-0315) over peak area of transition 1040.6→995.4 of the internal standard.
# [2] = Time course of ionizable cationic lipid in plasma, spleen and liver of mice, LC-MS; assay type: in vivo; details: for plasma levels of lipid at 7 days: 2 mg/kg tLNP (F9 or BF1) targeted to mouse CD8, FIG. 13C
# Experimental: To obtain more detailed data a similar experiment was conducted in mice where it was possible to obtain a time course of disappearance of the ionizable cationic lipid and the encapsulated mRNA as well. Mice were intravenously administered 2 mg/kg tLNP of composition BF1 (comprising ALC-0315) or F9 (comprising CICL1) targeted to mouse CD8 and encapsulating an anti-human CD19 CAR, and monitored through 7 days. At each timepoint, 3 mice were sacrificed, and liver, spleen, and plasma were processed for LC-MS-based detection of lipid concentration and digital PCR detection of the mRNA. In plasma, mRNA level was normalized to a known amount of mRNA spiked in a control. In spleen and liver mRNA level was normalized to mRNA for the housekeeping gene GAPDH.
# [3] = Tolerability in non-human primates: liver enzymes ALT and AST; assay type: in vivo; details: ionizable cationic lipid in F9 tLNP, second NHP study
# Experimental: A second study was conducted with F9 tLNP to evaluate the tolerability and engineering efficiency of (1) a single administration of a CD5-targeted tLNP (humanized 5D7 targeting antibody) with an mRNA payload encoding an anti-CD19 CAR, (2) a single administration of a CD8-targeted tLNP (chimeric RPA-T8 targeting antibody) with an mRNA payload also encoding the anti-CD19 CAR, and (3) repeat administration (3 doses) of the CD5-targeted tLNP. The CD5-targeted tLNP was administered as a single dose at 3.0 mg/kg (Group 2, n=2) or as a repeat dose of 1.0 mg/kg at 72-hour intervals (Q72h) for three doses (Group 5, n=2). […] As a control, PBS was administered (Group 1, n=1). All tLNP tested in the second study utilized composition F9. […] Clinical observations, clinical pathology, and toxicology biomarkers were evaluated to assess safety and tolerability. Pharmacological assessment was carried out by flow cytometry detection of anti-CD19 CAR in immune cell subsets in peripheral blood and tissues (spleen, bone marrow, lymph node, and liver).
# A third study in NHP with F9 tLNP targeted to C08 and encapsulating an mRNA encoding an anti-CD19 CAR was also conducted and the single dose liver enzyme results of all three studies (doses ranging from 3.5 to 3.0 mg mRNA/kg) compiled into single plots of AST and ALT levels for a more global assessment (FIG. 12K).
# [4] = molecular target: signal regulatory protein α (SIRPα) (Homo sapiens, UniProt P78324); details: cited from earlier work
# signal regulatory protein α (SIRPα), sequence (P78324 31-504): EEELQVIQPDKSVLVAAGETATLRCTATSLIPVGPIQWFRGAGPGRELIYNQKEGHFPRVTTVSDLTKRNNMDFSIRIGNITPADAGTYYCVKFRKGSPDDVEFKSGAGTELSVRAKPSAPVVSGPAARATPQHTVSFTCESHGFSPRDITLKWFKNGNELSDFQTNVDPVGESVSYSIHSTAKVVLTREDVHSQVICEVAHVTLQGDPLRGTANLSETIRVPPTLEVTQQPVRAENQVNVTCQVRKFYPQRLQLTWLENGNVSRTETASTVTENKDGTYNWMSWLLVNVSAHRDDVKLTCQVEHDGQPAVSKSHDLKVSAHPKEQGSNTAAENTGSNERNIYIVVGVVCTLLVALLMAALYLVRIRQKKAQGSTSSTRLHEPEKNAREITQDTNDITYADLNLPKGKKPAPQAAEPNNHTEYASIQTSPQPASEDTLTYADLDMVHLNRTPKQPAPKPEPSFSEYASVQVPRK
Molecule,"concentration remaining in blood, fold greater (than CICL1) ([1]; 24 hours after 3 mg mRNA/kg tLNP, FIG. 13B)",plasma levels of lipid at 7 days [2],lipid levels in spleen and liver throughout the 7 days ([2]; FIGS. 13D-E),tolerability [3],"concentrations in blood, liver, and spleen relative to each other ([1]; 24 hours) [fold]","spleen concentration, fold less than for ALC-0315 ([1]; 24 hours) [fold]","amount of lipid present in blood, liver, and spleen ([1]; 24 hours after 3 mg mRNA/kg tLNP)",biodegradability compared with ALC-0315 ([1]; clearance data),time after administration by which levels were falling in the spleen ([2]; FIG. 13D) [h],time after administration by which levels were falling in the liver ([2]; FIG. 13E) [h],"binding affinity to SIRPα, fold stronger than full-length CD47 protein [4] [fold]"
"CCCCCCCCC(CCCCCC)C(=O)OCCCCCCN(CCCCO)CCCCCCOC(=O)C(CCCCCC)CCCCCCCC (stereo not drawn) [ALC-0315, [(4-Hydroxybutyl)azanediyl)di(hexane-6,1-diyl) bis(2-hexyldecanoate), reference compound]",about 6 fold,still detected,remained almost unchanged,–,–,–,–,–,–,–,–
CCCCCCCCC(=O)OCC(COC(=O)CCCCCCCC)CC(=O)OCCN(CCOC(=O)CC(COC(=O)CCCCCCCC)COC(=O)CCCCCCCC)C(=O)OCCN(C)C [CICL1],–,returned to baseline,–,well tolerated,≤ 2,~35,only very small amounts,much more biodegradable,≤ 1,≤ 2,–
NYTCEVTELSREGKTVIELK (SEQ ID NO: 3) [CD47 peptide],–,–,–,–,–,–,–,–,–,–,10

# Reference: patent US20260263618A1, “LIPID NANOPARTICLE FORMULATIONS AND COMPOSITIONS” (CAPSTAN THERAPEUTICS, INC., priority 2023, published 2026)
